{"source": "patent US20260265239A1", "about": "“CRYSTAL FORM OF 2,6-PIPERIDINEDIONE COMPOUND, AND PREPARATION METHOD THEREFOR AND USE THEREOF” (ZHANGZHOU PIEN TZE HUANG PHARMACEUTICAL CO., LTD., priority 2023, published 2026)", "experiment": "Pharmacokinetic evaluation in beagle dogs", "format": "in vivo", "text": "Male beagle dogs were selected as the experimental animals in this study. The LC/MS/MS method was employed to quantitatively determine the plasma drug concentrations at different time points after intravenous injection or intragastric administration of the test compound, aiming to evaluate the pharmacokinetic characteristics of the compound of the present disclosure in beagle dogs.\nBeagle dogs (male, 7 to 10 kg, Beijing Mars Biotechnology Co., Ltd.).\nA solution of the test compound was slowly injected intravenously into beagle dogs (fed) via the peripheral vein (vehicle: 5% DMSO/10% Solutol/85% H2O), or administered intragastrically to beagle dogs (fed). For intravenous administration, 0.5 mL of blood was collected from the peripheral vein at 0.083, 0.25, 0.5, 1, 2, 4, 6, 8, and 24 h after administration, placed in EDTA-2K anticoagulant tubes, and centrifuged at 3200 g for 10 minutes at 2 to 8° C. to separate the supernatant. For intragastric administration, 0.5 mL of blood was collected from the peripheral vein at 0.083, 0.25, 0.5, 1, 2, 4, 6, 8, and 24 h after administration, placed in EDTA-2K anticoagulant tubes, and centrifuged at 3200 g for 10 minutes at 2 to 8° C. to separate the supernatant. Plasma drug concentrations were determined by the LC-MS/MS method, and relevant pharmacokinetic parameters were calculated using Phoenix WinNonlin 6.3 or 8.3.5 pharmacokinetic software with non-compartmental model linear-log trapezoidal method.", "key": {"[1]": {"settings": "Intragastric administration, 5 mg/kg"}, "[2]": {"settings": "Intragastric administration, 15 mg/kg"}, "[3]": {"settings": "Intravenous Injection (0.5 mg/kg)"}}, "note": "Structures can show the parent of a compound that is named as a salt.", "data": [{"smiles": "O=C1CCC(c2noc3ccc4c(NC(=O)CN5CCN(C[C@H]6CC[C@H](n7cc(NC(=O)c8coc(-c9ccnc(NCC%10CC%10)c9)n8)c(C(F)F)n7)CC6)CC5)cccc4c23)C(=O)N1", "note": "(some centres unmarked) [Hydrochloride of Compound of Formula (I)]", "values": [{"measurement": "Area Under the Drug-Time Curve (0-inf)", "setting": "[1]", "value": 3.20, "unit": "µM·h"}, {"measurement": "Peak Concentration", "setting": "[1]", "value": 0.41, "unit": "µM"}, {"measurement": "Time to Peak Concentration", "setting": "[1]", "value": 4.00, "unit": "h"}, {"measurement": "Area Under the Drug-Time Curve (0-inf)", "setting": "[2]", "value": 8.02, "unit": "µM·h"}, {"measurement": "Peak Concentration", "setting": "[2]", "value": 0.87, "unit": "µM"}, {"measurement": "Time to Peak Concentration", "setting": "[2]", "value": 4.00, "unit": "h"}, {"measurement": "Apparent Distribution Volume", "setting": "[3]", "value": 5.83, "unit": "L/kg"}, {"measurement": "Area Under the Drug-Time Curve (0-inf)", "setting": "[3]", "value": 0.44, "unit": "µM·h"}]}]}
